Assay: Paste stability test (storage in glass containers, assay of active ingredients by HPLC)
Format: physicochemical
Conditions: paste composition of Example 2, glass containers
Text: The paste composition of Example 2 was stored in glass containers at different temperatures for up to 12 months and assay of both active ingredients followed by HPLC analysis at given time points (3-, 6- and 12-months).

O=C(C1CCCCC1)N1CC(=O)N2CCc3ccccc3C2C1 (stereo not drawn) [Praziquantel, 2-(cyclohexylcarbonyl)-1,2,3,6,7,11b-hexahydro-4H-pyrazino[2,1-a]isoquinoline-4-one]
Content in % of start value (5° C., 3 month): 102.20% | Content in % of start value (5° C., 6 month): 103.98% | Content in % of start value (5° C., 12 month): 103.56% | Content in % of start value (25° C., 3 month): 102.52% | Content in % of start value (25° C., 6 month): 101.99% | Content in % of start value (25° C., 12 month): 102.73% | Content in % of start value (30° C., 3 month): 100.63% | Content in % of start value (30° C., 6 month): 102.31% | Content in % of start value (30° C., 12 month): 102.62% | Content in % of start value (40° C., 3 month): 101.36% | Content in % of start value (40° C., 6 month): 102.10% | Content in % of start value (40° C., 12 month): 100.94%
